According to patent US20060247862A1, “Determining cell cycle phase data” (priority 2003, published 2006):

System: U2OS cells
Test: Effect of cell cycle blocking agents on GFP fluorescence from cell cycle phase marker using transiently transfected cells
Format: cell-based
Settings: U2OS cells transiently transfected with cyclin B1 promoter/D-box/CRS-GFP construct; 24 hours exposure; compared to control cells (culture media alone); confocal imaging
Procedure: U2OS cells (ATCC HTB-96) were cultured in wells of a 96 well microtitre plate. Cells were transfected with a cell cycle reporter construct prepared according to Example 1, comprising a cyclin B1 promoter operably linked to sequences encoding the cyclin B1 D-box, the cyclin B1 CRS, and GFP in a pCORON4004 vector (Amersham Biosciences) using Fugene 6 (Roche) as the transfection agent.
Following 24 hours of culture, cells were exposed to the specific cell cycle blockers mimosine (blocks at G1/S phase boundary) or demecolcine (blocks in M phase). Control cells were exposed to culture media alone.
Cells were incubated for a further 24 hours and then analysed for nuclear GFP expression using a confocal scanning imager with automated image analysis (IN Cell Analysis System, Amersham Biosciences).

## CN[C@H]1CCc2cc(OC)c(OC)c(OC)c2-c2ccc(OC)c(=O)cc21 [demecolcine]
  GFP fluorescence (nuclear GFP expression) from cell cycle phase marker: increased fluorescence compared to control cells

## NC(Cn1ccc(=O)c(O)c1)C(=O)O (centres unmarked) [mimosine]
  GFP fluorescence (nuclear GFP expression) from cell cycle phase marker: decreased fluorescence compared to control cells
